Type in all cases: functional
Experiment [1] deals with Candida albicans. In words: Antifungal activity against Candida albicans CPCC400616 measured at 24 hrs by CLSI protocol based microbroth dilution method. As to conditions: CPCC400616, 24 h.
The test system of experiment [2] is Candida albicans. The experiment is described as follows: Antifungal activity against Candida albicans SC5314 incubated for 24 hrs by CLSI protocol based microbroth dilution method. As to conditions: SC5314, 24 h. (In general: In broth dilution the organism is exposed to a series of concentrations in liquid medium.)
Experiment [3] deals with Candida albicans. The experiment is described as follows: Antifungal activity against fluconazole-resistant Candida albicans CaR incubated for 24 hrs by CLSI protocol based microbroth dilution method.
The test system of a further experiment is Cryptococcus neoformans. In words: Antifungal activity against Cryptococcus neoformans CGMCC2.3161 measured at 72 hrs by CLSI protocol based microbroth dilution method. Conditions: CGMCC2.3161, 72 h.
A further experiment concerns [Candida] zeylanoides. The experiment is described as follows: Antifungal activity against Candida zeylanoides CGMCC2.3739 measured at 24 hrs by CLSI protocol based microbroth dilution method. As to conditions: Dujonia zeylanoides, CGMCC2.3739, 24 h.
Experiment [4] concerns Candida albicans. In words: Antifungal activity against fluconazole-resistant Candida albicans isolate 100 incubated for 24 hrs by CLSI protocol based microbroth dilution method. Conditions: isolate 100, 24 h.
In experiment [5] the test system is Candida albicans. The experiment is described as follows: Antifungal activity against fluconazole-resistant Candida albicans isolate 103 incubated for 24 hrs by CLSI protocol based microbroth dilution method. As to conditions: isolate 103, 24 h.
The subject of experiment [6] is Candida albicans. The experiment is described as follows: Antifungal activity against fluconazole-resistant Candida albicans isolate 17 incubated for 24 hrs by CLSI protocol based microbroth dilution method. Conditions: isolate 17, 24 h.
The next experiment has as its system Aspergillus fumigatus. In words: Antifungal activity against Aspergillus fumigatus CGMCC 3.7795 measured at 72 hrs by CLSI protocol based microbroth dilution method. Conditions: CGMCC 3.7795, 72 h.

Converted amounts (≈) assume the structure as drawn. Some results are limits rather than exact numbers.

In the case of `NNC(=S)N/N=C1\CC[Se]c2ccc(F)cc21`, the MIC90 – broadly, an inhibitory concentration at the 90% level, which refers to growth in some studies and to a panel of isolates in others – in the experiment on Candida albicans [1] came to 2 µg/mL (≈ 6.3 µM); in the experiment with Candida albicans [2] it was 4 µg/mL (≈ 12.6 µM); in the experiment with Candida albicans [3], 8 µg/mL (≈ 25.2 µM); with Cryptococcus neoformans it was 4 µg/mL (≈ 12.6 µM); in experiment [Candida] zeylanoides it was 64 µg/mL (≈ 202 µM); in the experiment with Candida albicans [4] it was 4 µg/mL (≈ 12.6 µM). Moreover, the MIC90 was 2 µg/mL (≈ 6.3 µM) in the experiment on Candida albicans [5], 8 µg/mL (≈ 25.2 µM) against Candida albicans [6] and over 128 µg/mL in the experiment with Aspergillus fumigatus.

With `OC(Cn1cncn1)(Cn1cncn1)c1ccc(F)cc1F` [FLUCONAZOLE], the MIC90 against Candida albicans [1] was 2 µg/mL (≈ 6.53 µM); against Candida albicans [2], 1 µg/mL (≈ 3.27 µM); with Candida albicans [3], over 128 µg/mL; against Cryptococcus neoformans, 1 µg/mL (≈ 3.27 µM); in [Candida] zeylanoides, 2 µg/mL (≈ 6.53 µM); in the experiment on Candida albicans [4], 128 µg/mL (≈ 418 µM). Further, the MIC90 was over 128 µg/mL against Candida albicans [5], 128 µg/mL (≈ 418 µM) against Candida albicans [6] and over 128 µg/mL in the experiment on Aspergillus fumigatus.

In the case of `COc1ccc(OC)c(NC(=S)N/N=C2\CC[Se]c3ccc(F)cc32)c1`, the MIC90 in the experiment on Candida albicans [1] is 8 µg/mL (≈ 18.2 µM); with Candida albicans [2] it was 2 µg/mL (≈ 4.56 µM); with Candida albicans [3], 4 µg/mL (≈ 9.12 µM); against Cryptococcus neoformans it was 4 µg/mL (≈ 9.12 µM); in experiment [Candida] zeylanoides, 4 µg/mL (≈ 9.12 µM); in the experiment on Candida albicans [4], 2 µg/mL (≈ 4.56 µM). The MIC90 in the experiment with Candida albicans [5] was determined as 4 µg/mL (≈ 9.12 µM); in the experiment on Candida albicans [6] it was 2 µg/mL (≈ 4.56 µM); against Aspergillus fumigatus, 64 µg/mL (≈ 146 µM).
